This note sets out measurements from patent publication US11485742B2, “2-azaspiro[3.4]octane derivatives as M4 agonists” (NOVARTIS AG, priority 2019, dated 2022).

Format in all cases: cell-based
For assay [1], the target named is T1, human cloned CHRM5 receptor (Homo sapiens, UniProt P08912).
T1 construct: expressed in transfected cells; host or cells: CHO (M5_CHO)
T1 sequence (P08912 1-532): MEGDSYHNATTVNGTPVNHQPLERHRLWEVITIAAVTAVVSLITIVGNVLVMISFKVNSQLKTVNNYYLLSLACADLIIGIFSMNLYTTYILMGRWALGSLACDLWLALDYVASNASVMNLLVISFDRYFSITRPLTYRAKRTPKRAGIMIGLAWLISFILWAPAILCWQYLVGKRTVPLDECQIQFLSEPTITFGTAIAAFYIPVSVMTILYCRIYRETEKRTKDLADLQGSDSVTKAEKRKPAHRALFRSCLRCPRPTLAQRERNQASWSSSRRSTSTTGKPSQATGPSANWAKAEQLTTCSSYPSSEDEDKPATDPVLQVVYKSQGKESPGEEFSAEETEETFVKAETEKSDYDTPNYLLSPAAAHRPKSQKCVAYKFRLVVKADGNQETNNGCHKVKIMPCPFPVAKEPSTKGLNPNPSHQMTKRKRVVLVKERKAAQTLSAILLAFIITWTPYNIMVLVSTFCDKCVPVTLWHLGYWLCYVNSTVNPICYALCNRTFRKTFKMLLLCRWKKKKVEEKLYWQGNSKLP
Nature of the assay: CHRM5 Ca++ Flux Assay (M5_CHO cells, agonist mode). The settings on record: for M5 FDSS PA % / Emax: Percent Activity (PA) measured to EC100 of Carbachol; for EC50: agonist mode, geometric mean if tested more than once, read-out: M5 FDSS EC50; for Emax: read-out: M5 FDSS PA %. The method, then: (§1) The above examples were characterized by measuring the intracellular mobilization of Ca^++ ions caused by signaling events mediated by the receptor. The Intra-cellular Calcium flux levels were captured by the highly sensitive Ca^++ indicator, Calcium Assay Kit (BD Biosciences; Catalog Number 640178. The fluorescent activity from all receptors were monitored by the fluorescent imager, FDSS 7000EX (Hamamatsu) over a span of 3 minutes. The change in Calcium flux was readily captured upon activation with the muscarinic orthosteric agonist, Carbachol.
(§2) CHO-K1 cells stably expressing the human cloned CHRM3 receptor (M3_CHO cells) were grown and maintained in a monolayer culture with F12/HAM (Life Technologies) supplemented with 10% Fetal Bovine Serum, IX Pen-Strep, and 0.4 mg/mL Geneticin in a humidified atmosphere (5% CO2) at 37° C. The cultures were grown to 80-90% confluency in T150 flasks (Corning) and washed with 1×DPBS and lifted with 0.05% Trypsin (Life Technologies). The cells were then spun (1K rpm, 3 minutes) and frozen using Recovery Cell Culture Freezing Media (Gibco Technologies). Cells were stored in liquid nitrogen and thawed a day before the assay. A similar procedure was used for cells stably expressing the human cloned CHRM5 receptor (M5_CHO).
(§3) Prior to the day of the assay, stable M3_CHO or M5_CHO cells were thawed and plated on Greiner 384 well black TC treated plates at 12K cells/well in F12/DMEM supplemented with 10% FBS (Hyclone) and kept overnight in a humidified atmosphere (5% CO2) at 37° C. The next day, cells were loaded with Ca^++ dye (BD Biosciences) using Loading Buffer (HBSS +Ca/+Mg, 20 mM HEPES, 2.5 mM Probenecid) and placed back in cell incubator for a minimum of 1 hour. After incubation, the dye was replaced with Assay Buffer (HBSS −Ca/−Mg, 20 mM HEPES, 2.5 mM Probenecid) and kept at room temperature in the dark before running on cell imager. The FDSS 7000EX (Hamamatsu) was used to acquire Ca^+− traces from cells treated with 11 point dose response of compounds in triplicate in order to generate dose response curves in agonist mode. All compounds were serially diluted in DMSO then prepared in Assay Buffer for Ca^++ flux studies. The dose response curves were generated from the average of triplicate wells obtained from each data point and used a non-linear regression of four parameter dose response algorithm. The Percent Activity (PA) was measured to EC100 of Carbachol.
(§4) If an Example was tested more than once in an assay, then the values below represent the geometric mean of the results from each independent experiment.

Assay [2] has as its target T2, human cloned CHRM3 receptor (Homo sapiens, UniProt P20309).
T2 construct: expressed in transfected cells; host or cells: CHO-K1 (M3_CHO)
Nature of the assay: CHRM3 Ca++ Flux Assay (M3_CHO cells, agonist mode). Particulars: for M3 FDSS PA % / Emax: Percent Activity (PA) measured to EC100 of Carbachol; for EC50: agonist mode, geometric mean if tested more than once, read-out: M3 FDSS EC50; for Emax: read-out: M3 FDSS PA %. The method, then: as §1, §2, §3, §4

The target in assay [3] is T3, Cloned human M1 receptor (CHRM1) (Homo sapiens, UniProt P11229).
T3 construct: expressed in transfected cells; host or cells: HEK293
T3 sequence (P11229 1-460): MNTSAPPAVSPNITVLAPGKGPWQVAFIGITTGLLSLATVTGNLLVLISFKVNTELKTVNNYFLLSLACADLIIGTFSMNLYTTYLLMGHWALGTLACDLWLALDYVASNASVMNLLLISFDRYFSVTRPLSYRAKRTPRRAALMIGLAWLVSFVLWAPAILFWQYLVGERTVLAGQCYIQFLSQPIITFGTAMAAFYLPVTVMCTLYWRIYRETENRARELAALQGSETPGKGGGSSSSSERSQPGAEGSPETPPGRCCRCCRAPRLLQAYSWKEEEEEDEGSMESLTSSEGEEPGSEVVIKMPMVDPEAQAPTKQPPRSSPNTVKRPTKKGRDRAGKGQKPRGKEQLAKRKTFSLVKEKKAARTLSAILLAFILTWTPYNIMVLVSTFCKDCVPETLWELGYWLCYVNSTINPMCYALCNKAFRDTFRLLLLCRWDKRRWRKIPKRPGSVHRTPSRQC
Kind of assay: CHRM1 Ca++ Flux Assay (HEK293 M1 cells, agonist mode). Particulars: for M1 FDSS PA % / Emax: Percent Activity (PA); for EC50: geometric mean if tested more than once, read-out: M1 FDSS EC50; for Emax: read-out: M1 FDSS PA %. How it is done: as §1
Cloned human M1 receptor (CHRM1) was stably expressed in HEK293 cells and were grown and maintained in a monolayer culture with DMEM/High Glucose (Life Technologies) supplemented with 10% Fetal Bovine Serum, 1×Pen-Strep, and 0.5 mg/mL Geneticin in a humidified atmosphere (5% CO2) at 37° C. The cultures were grown to 90% confluency in T150 flasks (Corning) and washed with 1×DPBS and lifted with 0.05% Trypsin (Life Technologies). The cells were then spun (1K rpm, 3 minutes) and frozen using Recovery Cell Culture Freezing Media (Gibco Technologies). Cells were stored in liquid nitrogen and thawed a day before the assay.
Prior to the day of the assay, stable HEK293 M1 cells were thawed and plated on 384 well black walled clear bottom TC treated plates (Greiner Cat #781091) at 25K cells/well with DMEM/High Glucose supplemented with 10% FBS (Hyclone) Pen-Strep (Life Technologies) and kept overnight in a humidified atmosphere (5% CO2) at 37° C. The following day, cells were loaded with 20 uL Ca^++ dye (BD Biosciences) using Loading Buffer (HBSS +Ca/+Mg, 20 mM HEPES) and placed back in cell incubator for a minimum of 1 hour. The dye was replaced with 45 μL Assay Buffer (HBSS −Ca/−Mg, 20 mM HEPES) and kept at room temperature prior to running on cell imager. Compounds were prepared in Assay Buffer and 5 uL was added to the cells. The FDSS 7000EX (Hamamatsu) was used to acquire Ca++ traces for 3 minutes from cells treated with 11 point dose in triplicate in order to generate dose response curves in agonist mode. All compounds were serially diluted in DMSO then prepared in Assay Buffer for Ca^++ flux studies. The dose response curves were generated from the average of triplicate wells obtained from each data point and used a non-linear regression of four parameter dose response algorithm. The Percent Activity (PA) was measured to EC100 of Carbachol.
as §4

T2 sequence (P20309 whole entry): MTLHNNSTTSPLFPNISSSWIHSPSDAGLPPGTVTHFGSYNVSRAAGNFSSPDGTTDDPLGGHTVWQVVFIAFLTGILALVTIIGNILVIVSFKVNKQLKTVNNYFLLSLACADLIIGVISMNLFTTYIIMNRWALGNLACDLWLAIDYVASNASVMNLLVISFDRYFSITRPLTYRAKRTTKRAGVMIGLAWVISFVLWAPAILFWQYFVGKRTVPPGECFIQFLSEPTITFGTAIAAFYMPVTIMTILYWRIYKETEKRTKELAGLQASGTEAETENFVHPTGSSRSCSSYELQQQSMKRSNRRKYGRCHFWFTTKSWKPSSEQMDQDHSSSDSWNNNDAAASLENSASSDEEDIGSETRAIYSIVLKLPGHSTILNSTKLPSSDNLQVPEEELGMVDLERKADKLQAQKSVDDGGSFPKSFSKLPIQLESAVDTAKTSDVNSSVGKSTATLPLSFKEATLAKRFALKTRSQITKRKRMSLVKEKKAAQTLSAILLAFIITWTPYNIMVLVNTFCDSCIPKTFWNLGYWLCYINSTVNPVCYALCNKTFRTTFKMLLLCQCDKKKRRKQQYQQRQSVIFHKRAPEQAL

Turning to `Fc1ccc([C@H]2CCOC2)c(C2CCN([C@@H]3COC4(C3)CN(c3nnco3)C4)CC2)c1` (single isomer, unassigned) [Example 3F, (S)-7-(4-(5-fluoro-2-((R)-tetrahydrofuran-3-yl)phenyl)piperidin-1-yl)-2-(1,3,4-oxadiazol-2-yl)-5-oxa-2-azaspiro[3.4]octane or (S)-7-(4-(5-fluoro-2-((S)-tetrahydrofuran-3-yl)phenyl)piperidin-1-yl)-2-(1,3,4-oxadiazol-2-yl)-5-oxa-2-azaspiro[3.4]octane], in assay [1], the “M5 FDSS PA %” value was determined as 0% and the EC50 is more than 25 µM. In addition, in assay [2], the “M3 FDSS PA %” value is reported as 0% and the EC50 is more than 25 µM. Besides, in assay [3], the “M1 FDSS PA %” value amounted to 86% and the EC50 turned out to be 0.595 µM.
In the case of `COC(C)(C)CCOc1ccc(F)cc1C1CCN([C@@H]2COC3(C2)CN(c2nncs2)C3)CC1` [Example 5N, (S)-7-(4-(5-fluoro-2-(3-methoxy-3-methylbutoxy)phenyl)piperidin-1-yl)-2-(1,3,4-thiadiazol-2-yl)-5-oxa-2-azaspiro[3.4]octane], the results for the Emax in assay [1], in assay [2] and in assay [3] were 21%, 0% and 68%, respectively. The EC50 is 12.4 µM in assay [1], more than 25 µM in assay [2] and 2.97 µM in assay [3].
Regarding `Fc1ccc(OC2CCOCC2)c(C2CCN([C@@H]3COC4(C3)CN(c3nnco3)C4)CC2)c1` [Example 1G, (S)-7-(4-(5-fluoro-2-((tetrahydro-2H-pyran-4-yl)oxy)phenyl)piperidin-1-yl)-2-(1,3,4-oxadiazol-2-yl)-5-oxa-2-azaspiro[3.4]octane], the Emax in assay [1] came out at 0%; in assay [2], 0%; in assay [3], 77%. The EC50 is more than 25 µM in assay [1], more than 25 µM in assay [2] and 0.973 µM in assay [3].
Regarding `CC1(C)C[C@@H](Oc2ccc(F)cc2C2CCN([C@@H]3COC4(C3)CN(c3nnco3)C4)CC2)CO1` (single isomer, unassigned) [Example 2N, (S)-7-(4-(2-(((R)-5,5-dimethyltetrahydrofuran-3-yl)oxy)-5-fluorophenyl)piperidin-1-yl)-2-(1,3,4-oxadiazol-2-yl)-5-oxa-2-azaspiro[3.4]octane or (S)-7-(4-(2-(((S)-5,5-dimethyltetrahydrofuran-3-yl)oxy)-5-fluorophenyl)piperidin-1-yl)-2-(1,3,4-oxadiazol-2-yl)-5-oxa-2-azaspiro[3.4]octane], in assay [1], the “M5 FDSS PA %” value was found to be 0% and the EC50 was more than 25 µM. In addition, in assay [2], the “M3 FDSS PA %” value is 0% and the EC50 is more than 25 µM. Besides, in assay [3], the “M1 FDSS PA %” value is reported as 71% and the EC50 amounted to 5.09 µM.
Regarding `Fc1cc(OC2COC2)c(C2CCN([C@@H]3COC4(C3)CN(c3nnco3)C4)CC2)cc1F` [Example 2FF, (S)-7-(4-(4,5-difluoro-2-(oxetan-3-yloxy)phenyl)piperidin-1-yl)-2-(1,3,4-oxadiazol-2-yl)-5-oxa-2-azaspiro[3.4]octane], the results for the Emax in assay [1], in assay [2] and in assay [3] were 0%, 0% and 70%, respectively. Besides, the EC50 in assay [1] was more than 25 µM; in assay [2], more than 25 µM; in assay [3], 0.264 µM.
For `CC(C)(O)COc1ccc(F)cc1C1CCN([C@@H]2COC3(C2)CN(c2nncs2)C3)CC1` [Example 5U, (S)-1-(2-(1-(2-(1,3,4-thiadiazol-2-yl)-5-oxa-2-azaspiro[3.4]octan-7-yl)piperidin-4-yl)-4-fluorophenoxy)-2-methylpropan-2-ol], the Emax in assay [1] is 0%; in assay [2] it was 0%; in assay [3], 75%. The concentration giving a half-maximal response (EC50) in assay [1] is more than 25 µM; in assay [2], more than 25 µM; in assay [3], 2.44 µM.
Regarding `Fc1ccc(O[C@@H]2CCOC2)c(C2CCN([C@@H]3COC4(C3)CN(c3nncs3)C4)CC2)c1` [Example 5H, (S)-7-(4-(5-fluoro-2-(((R)-tetrahydrofuran-3-yl)oxy)phenyl)piperidin-1-yl)-2-(1,3,4-thiadiazol-2-yl)-5-oxa-2-azaspiro[3.4]octane], the Emax in assay [1] came out at 0%; in assay [2], 0%; in assay [3] it was 67%. Moreover, the EC50 in assay [1] was more than 25 µM; in assay [2], more than 25 µM; in assay [3] it was 0.432 µM.
As for `Fc1cc(F)c(OCC2COC2)c(C2CCN([C@@H]3COC4(C3)CN(c3nnco3)C4)CC2)c1` [Example 2DD, (S)-7-(4-(3,5-difluoro-2-(oxetan-3-ylmethoxy)phenyl)piperidin-1-yl)-2-(1,3,4-oxadiazol-2-yl)-5-oxa-2-azaspiro[3.4]octane], the Emax worked out at 0% in assay [1], 0% in assay [2] and 67% in assay [3]. Besides, the EC50 is more than 25 µM in assay [1], more than 25 µM in assay [2] and 1.12 µM in assay [3].
